Measured values reported in patent US20200138764A1, “METHODS AND DEVICES FOR ACTIVATING ADIPOSE TISSUE” (The Procter & Gamble Company, priority 2018, published 2020).

Legend:
human TRPM8 = experiment: TRPM8 Protocol-FLIPR Assay (intracellular Ca2+); format: cell-based; details: HEK-293 cells stably transfected with human TRPM8, Fluo-4 AM, relative to benchmark agonist WS-5
Experimental: To determine whether TRPM8 is activated, the intracellular calcium ion (Ca^2+) level was measured from transfected cells with the TRPM8 receptor sequence (SEQ ID NO: 1). HEK-293 (human embryonic kidney) cells stably transfected with human TRPM8 were grown in 15 mL growth medium (high glucose DMEM (Dulbecco's Modification of Eagle's Medium) supplemented with 10% FBS (fetal bovine serum), 100 μg/mL penicillin/streptomycin, 5 μg/mL blasticindin, and 100 μg/mL zeocin) in a 75 cm^2 flask for 3 days at 37° C. in a mammalian cell culture incubator (Forma Scientific Model 3110, Marietta, Ohio) set at 5% CO2. Cells were detached with addition of 2 mL of trypsin-EDTA buffer (GIBCO® 25200, Invitrogen, Grand Island, N.Y.) for about 2-3 min. Trypsin was inactivated by addition of 8 mL growth medium. Cells were transferred to a 50 mL tube and centrifuged at 850 rpm for 3 minutes to remove medium. After centrifugation, a pellet of cells was formed in the bottom of the tube separating them from the supernatant solution. The supernatant was discarded and the cell pellet was suspended in 1 mL of fresh growth medium to which 5 μL (12.5 μg) of Fluo-4 AM (Molecular Probes, Inc., Eugene, Oreg.) calcium indicator was added and incubated for 30 min with gentle shaking. Fluo-4 AM is a fluorescent dye used for quantifying cellular Ca^2+ concentrations in the 100 nM to 1 μM range. At the end of 30 minutes, 45 mL of assay buffer (1×HBSS (Hank's Balanced Salt Solution), 20 mM HEPES (4-(2-Hydroxyethyl)-1-piperazineethanesulfonic acid)) was added to wash cells and the resulting mixture was then centrifuged at 850 rpm for 3 minutes at 20° C. to remove excess buffer and Fluo-4 AM calcium indicator.
The pelleted cells were re-suspended in 10 mL assay buffer and 90 μL aliquots (˜50,000 cells) per well delivered to a 96-well assay plate containing 10 μL of test compounds (1 mM in assay buffer, final concentration 100 μM) or buffer control and incubated at room temperature for 30 minutes. After 30 minutes, a plate (Falcon 353219, Corning Corning N.Y.) was placed into a fluorometric imaging plate reader (FLIPR384 from Molecular Devices, Sunnyvale, Calif.) and basal fluorescence recorded (excitation wave length 488 nm and emission wave length 510 nm). Then 20 μL of 100 mM of TRPM8 agonist WS5 coolant in the assay buffer was added and fluorescence recorded. For determining the direct effect of test compounds on TRPM8, fluorescence was measured immediately after addition of each compound (TABLE 1). Additional discussion of the FLIPR method can be found in Smart et al., Characterization using FLIPR of human vanilloid VR1 receptor pharmacology, European Journal of Pharmacology 417, 51-58 (2001) and Liu et al., Development and validation of a platelet calcium flux assay using a fluorescent imaging plate reader, Analytical Biochemistry 357, 216-224 (2006).
The magnitude of the fluorescence of the active-treated cells was compared to the magnitude of the fluorescence from a benchmark agonist (WS-5), as described above. The percentage of fluorescence as a function of active dose was plotted and a sigmoidal curve was generated. Curve fitting from this dose-response curve yielded the value for TRPM8 IC50 in nM.
TRPM8 activation was determined by measuring intracellular calcium ion (Ca^2+) level from transfected cells with the TRPM8 receptor gene, as described in EXAMPLE 1, the results of which are shown in TABLE 1. IC50 values are provided in column 3 of TABLE 1, which measured the concentration of activating compound needed to reduce intracellular [Ca^2+] by 50%. […]

[1] = test system: Human subcutaneous pre-adipocytes; experiment: Lipogenesis Assay (AdipoRed staining); format: cell-based; details: AdipoRed fluorescence, NI = no inhibition at concentration less than/equal to 1 mM
Experimental: Lipogenesis is the process by which acetyl-CoA is converted to fatty acid. Through lipogenesis and subsequent triglyceride synthesis, energy can be stored in the form of adipose tissue (i.e. fats). To determine what effect, if any, activating compounds (shown in TABLE 1) had on lipogenesis, the protocol listed below was used.
To determine whether the activating compounds (shown in TABLE 1) impacted the formation of white adipocytes from pre-adipocytes, a lipogenesis assay was performed. The cells utilized in the protocol were cryo-preserved Human subcutaneous pre-adipocytes superlot (Zen-Bio, Inc., Research Triangle Park, N.C., Cat # SP-F-SL). The growth media used was PM-1 (Zen-Bio, Inc., Research Triangle Park, N.C., cat # PM-1) plus 5 ng/mL Epidermal Growth Factor (EGF). The PM-1+5 ng/mL EGF was prepared by adding 12.5 uL of 200 ug/mL EGF stock to 500 mL PM-1. The differentiation media used was DM-2 (Zen-Bio, Inc., Research Triangle Park, N.C., cat # DM-2). The adipocyte maintenance media used was AM-1 (Zen-Bio, Inc., Research Triangle Park, N.C., cat # AM-1).
First, the human subcutaneous pre-adipocyte cells were thawed in a 37° C. water bath. Next, the thawed pre-adipocyte cells were added to 9 mL of growth medium (PM-1) at 20° C. in a 15 mL polypropylene tube (Bioexpress, Corning, Corning, N.Y.). The tube was centrifuged at 280×g (˜1100 rpm) at 20° C. for 5 min. After 5 min, the supernatant was removed and the accumulated solids were re-suspended in 2 mL of PM-1 using trituration. The suspension of cells was counted under 100× magnification using a Cyto C-Chip hemacytometer (Incyto, Seoul, South Korea, cat # DHC-N01-5). In order to proceed, 15-50 cells per 1×1 mm square in hemacytometer was needed. If, the number of cells per square was not met, 6.7×10^5 (670,000) cells per T75 flask (Bioexpress, Corning, Corning, N.Y.) were added to each square and the suspension was diluted to 20 mL with PM-1. Every other day, new media was added to replace media removed due to metabolism by the cells. The cells were re-counted as described previously. Cells were grown to 80-90% confluence, which took approximately 4-5 days. 80-90% confluence is determined by visual inspection of the area of the flask occupied by the cells. When 80-90% of the flask area has been occupied, cells are at 80-90% confluence. Cell colonies were then split 1:6 by harvesting from a single flask and equally dividing the harvested cells into six flasks. Colonies were not allowed to exceed 3 passages and were not grown to complete confluence. The pre-adipocytes were grown until they contact with other cells in the flask to aid differentiation into white or brown adipocytes.
After the pre-adipocytes were sufficiently grown to 90% confluence, the cells were ready for differentiation and treatment with an activating compound. Cells were washed with 3 mL of PBS and detached using 3 mL of Trypsin EDTA. The cells were incubated at 37° C. for 5 minutes. Next, the cells were centrifuged at 280×g at 20° C. for 5 minutes. The supernatant was discarded and the resulting pellet was re-suspended in 10 mL of PM-1 using trituration. Cells were counted at 100× magnification and the cells were diluted to 86,667 cells/mL (˜13,000 cells/150 μL) by adding the necessary amount of PM-1 to achieve the desired concentration. Upon addition of PM-1, samples were swirled by hand to evenly disperse the cells prior to plating.
Once confluence is reached, 150 μL of differentiation media (DM-2) was added (DAY 0). Samples were incubated at 37° C. for 6 days. On DAY 6, 90 μL of media was removed from each sample via aspiration, without touching the bottom of the well. Next, 140 μL of adipocyte maintenance medium (AM-1) was added. The AM-1 ran down the side of well. On DAY 6, activating compounds were added (2 μL of 10 mM activating compound) to give a final concentration of 100 μM of activating compounds. […]

adipocytes = experiment: Real Time PCR analysis of adipocytes, in vitro; format: cell-based, human
Experimental: For Real Time PCR analysis of adipocytes, cells from cultures grown in 24 well plates were collected. RNA was isolated using RNeasy Kit (Cat 74104, Qiagen, Germantown, Md.) using manufacturer's protocol. RNA was quantitated using the Nanodrop 1000 (Thermofisher, Waltham, Mass.). cDNA formation was carried out using PowerUp SYBR™ Green Master Mix and real time PCR carried out on QuantStudio 6 machine (ThermoFisher, Waltham, Mass.) per manufacturer protocol. ΔΔCT analysis was done using the Expression Suite software (ThermoFisher) purchased with the instrument.
TABLE 2 used Real Time PCR to determine which proteins were expressed in adipocytes upon treatment with activating compounds. […] Real Time PCR values were relative to a control sample that was not treated with any activating compounds. […] In WS-5 and Menthol, no Real Time PCR value was over 2.0, which indicated only slight changes in mRNA expression.

[2] = Real Time PCR, relative to untreated control = 1

CC(C)[C@@H]1CC[C@@H](C)C[C@H]1C(=O)OC[C@@H](NC(=O)[C@@H](C)N)c1ccccc1 [Formula VI]
IC50 (human TRPM8): 0.008 µM
IC50 ([1]; Homo sapiens): 40 µM

CC(C)[C@@H]1CC[C@@H](C)C[C@H]1C(=O)NC[C@@H](NC(=O)[C@@H](C)N)c1ccccc1 [Formula IV]
IC50 ([1]; Homo sapiens): 800 µM
Relative Expression of mRNA in Adipocytes: 18S (adipocytes; [2]): 0.95
Relative Expression of mRNA in Adipocytes: ACADM (adipocytes; [2]): 1.4
Relative Expression of mRNA in Adipocytes: CPT1A (adipocytes; [2]): 1.7
Relative Expression of mRNA in Adipocytes: FASN (adipocytes; [2]): 1.35
Relative Expression of mRNA in Adipocytes: GAPDH (adipocytes; [2]): 1
Relative Expression of mRNA in Adipocytes: PPARGC1A (adipocytes; [2]): 1.1
Relative Expression of mRNA in Adipocytes: PRDM16 (adipocytes; [2]): 0.7
Relative Expression of mRNA in Adipocytes: UCP-1 (adipocytes; [2]): 1.8
Real Time PCR value (any of the proteins of TABLE 2) (adipocytes; upper bound over all proteins, relative to untreated control): ≤ 2

CC(C)[C@@H]1CC[C@@H](C)C[C@H]1C(=O)NCC(NC(=O)[C@H](C)N)c1ccccc1 (stereo partly drawn) [Comparative Example 2]
IC50 (human TRPM8): 0.01 to 0.012 µM
IC50 [1]: 900 µM
IC50 ([1]; Homo sapiens): 800 µM

CC(C)[C@@H]1CC[C@@H](C)C[C@H]1C(=O)OC[C@@H](NC(=O)[C@H](C)N)c1ccccc1 [Formula V]
IC50 (human TRPM8): 0.34 µM
IC50 ([1]; Homo sapiens): 80 µM

CC(C)[C@@H]1CC[C@@H](C)C[C@H]1C(=O)NCC(NC(=O)[C@@H](C)N)c1ccccc1 (stereo partly drawn) [Comparative Example 1]
IC50 ([1]; Homo sapiens): 800 µM
